Publication PMC4596473 (PLoS ONE, 2015)
Entries after “also recorded” stand apart in the source; their conditions may differ. Read-outs that look alike come from different tables or passages of the source. One block for each compound: values may come before it.

What was measured:
[1] = human, in vivo, po
Description: (§1) The plasma concentrations of luseogliflozin and its metabolites were determined by two separate methods at JCL Bioassay Corp. (Hyogo, Japan). Luseogliflozin, its metabolites and its deuterium-labeled internal standard (luseogliflozin-d5, M2-d5 and M17-d5, Taisho Pharmaceutical Co. Ltd., Japan) were extracted from plasma by solid phase extraction. Extracts were analysed by LC-MS/MS. The lower limit of quantification (LLOQ) for luseogliflozin and its metabolites (M2 and M17) in plasma were 0.05 and 0.1 ng/mL, respectively. […] Extracts were analysed by LC-MS/MS. […] Summary statistics were provided for the pharmacokinetic parameters by treatment group.

[2] = tested on: human ether-a-go-go-related gene (hERG) current; conditions: at 9.6 μmol/L; non-clinical study; cited from earlier work
[3] = cited from earlier work
[4] = tested on: SGLT2; conditions: read-out: 50% inhibitory concentration (IC50); SGLT2, human expressing cells, nonclinical study; cited from earlier work
[5] = tested on: dogs; conditions: 52-week repeated dose; cited from earlier work
[6] = tested on: Japanese patients with type 2 diabetes mellitus; conditions: cited from earlier work
[7] = clinical; conditions: human, in vivo, po
Description: as §1

[8] = tested on: healthy Japanese subjects; test: Safety assessment (adverse events, vital signs, ECG, laboratory tests); type: in vivo, human; conditions: for Tolerability: single dose of luseogliflozin 5 mg and 20 mg
Description: Safety assessments included recording of adverse events, vital signs (body temperature, blood pressure, and pulse rate), physical examinations, ECGs, and clinical laboratory tests.

[9] = tested on: papillary muscle of anesthetized guinea pigs; conditions: non-clinical study; cited from earlier work
[10] = tested on: healthy Japanese subjects; test: Thorough QT/QTc study: 12-lead ECG assessment of QTcF/QTcB; type: in vivo, human; conditions: for Upper bound of the 90% two-sided CI of the least squares mean ΔΔQTcB: all time points, data not shown; for Upper bound of the 90% two-sided CI for the least squares mean ΔΔQTcF: single dose, all time points 0.5-24 h post-dose; for Least squares mean ΔΔQTcF: moxifloxacin 400 mg single dose
Description: The study was conducted at Kitasato Institute Hospital (Tokyo, Japan) from July 6th 2011 to September 15th 2011. […] All treatments were administered with 200 mL of water after at least 10-hour overnight fast, and no food was allowed until 4 hours after dosing. All treatments were administered in a randomized sequence. The random assignment manager randomly assigned treatment groups using the Williams Design to determine the order of treatments within each treatment sequence by the time of study drug administration to the first admission group. A randomization code was created for each treatment sequence sealed and securely retained until unblinding and were provided to the sponsor after unblinding.
Serial triplicate digital 12-lead electrocardiograms (ECGs) were recorded over 5 min in the supine position after resting for 10 min for each time point (pre-dose [50–70 min before dosing], 0.5, 1, 2, 3, 4, 6, 8, and 24 h post-dose) using an electrocardiograph (ELI250, Mortara). The same model of 12-lead digital surface ECG monitor was employed for all subjects at all time points. The same lead was used throughout the study. The interval between the start of each recording was ≥1 min, and ECG was recorded for 10 s for each chart. All 12-lead ECG charts for QT/QTc analysis were sent electronically to the central ECG analysis facility. RR and QT intervals were measured in accordance with the procedures of the facility. The time of recording and subject identification information were blinded before measurement. QTc intervals were corrected by Fridericia’s (QTcF = QT/RR^1/3) and Bazett’s (QTcB = QT/RR^1/2) formulae. QTcF was the primary endpoint, and QTcB was the secondary endpoint.
Treatment comparisons between luseogliflozin therapeutic dose or supratherapeutic dose and placebo (ΔΔQTc) were analyzed using a linear mixed model with treatment, sequence, period, scheduled time, and the interaction of treatment with scheduled time as fixed effects, subject as a random effect, and baseline QTc as a covariate. The effect of luseogliflozin on QT/QTc interval prolongation was regarded as negative when the upper bound of the 90% two-sided confidence interval (CI) for the mean effect on the QT/QTc interval […] 10 ms at all time points in the luseogliflozin groups.
A categorical analysis was also performed. New onset of QTc greater than 450, 480, or 500 ms after dosing or change from baseline in QTc greater than 30 or 60 ms was categorized in each treatment group.

[11] = tested on: rats; conditions: 26-week repeated dose; cited from earlier work
[12] = tested on: SGLT1; conditions: read-out: 50% inhibitory concentration (IC50); SGLT1, human expressing cells, nonclinical study; cited from earlier work
[13] = tested on: conscious beagle dogs; conditions: non-clinical study; cited from earlier work
[14] = tested on: human ether-a-go-go-related gene (hERG) current; test: hERG current in hERG-transfected HEK293 cells in vitro; type: cell-based; conditions: versus Cmax of a 5 mg dose in diabetic subjects in a clinical study
Description: In non-clinical studies, effects of luseogliflozin on the cardiovascular system were investigated via the human ether-a-go-go-related gene (hERG) current in hERG-transfected human embryonic kidney cells (HEK293 cells) in vitro; action potential in the papillary muscle of anesthetized guinea pigs; and blood pressure, heart rate, and electrocardiogram (ECG) in conscious beagle dogs.

[15] = TS-071 25 mg single oral dose, healthy adult males, ref Investigator's Brochure of TS-071 (Version 6)
[16] = luseogliflozin 20 mg (supratherapeutic dose)

- AUCinf ([1]; 5 mg): 257 ± 48.3 ng·h/mL
- Cmax ([1]; 5 mg): 8.85 ± 1.95 ng/mL
- T1/2 ([1]; 5 mg): 13.8 ± 2.61 h
- Tmax ([1]; 5 mg): 5.71 ± 2.14 h
- AUCinf ([1]; 20 mg): 1030 ± 212 ng·h/mL
- Cmax ([1]; 20 mg): 35.1 ± 7.36 ng/mL
- T1/2 ([1]; 20 mg): 13.9 ± 2.53 h
- Tmax ([1]; 20 mg): 5.83 ± 1.90 h
SMILES: COc1cc(C)c(Cc2ccc(O)cc2)cc1[C@@H]1S[C@H](CO)[C@@H](O)[C@H](O)[C@H]1O [M2]

- AUCinf ([1]; 5 mg): 120 ± 41.9 ng·h/mL
- Cmax ([1]; 5 mg): 6.02 ± 2.10 ng/mL
- T1/2 ([1]; 5 mg): 10.9 ± 1.49 h
- Tmax ([1]; 5 mg): 4.89 ± 1.14 h
- AUCinf ([1]; 20 mg): 487 ± 196 ng·h/mL
- Cmax ([1]; 20 mg): 24.3 ± 9.98 ng/mL
- T1/2 ([1]; 20 mg): 10.9 ± 1.71 h
- Tmax ([1]; 20 mg): 5.13 ± 1.14 h
SMILES: COc1cc(C)c(Cc2ccc(OCC(=O)O)cc2)cc1[C@@H]1S[C@H](CO)[C@@H](O)[C@H](O)[C@H]1O [M17]

- Tmax ([1]; 5 mg): 1.34 ± 0.935 h
- T1/2 ([1]; 20 mg): 9.90 ± 1.22 h
- AUC(0-inf) ([7]; 5 mg): 2110 ± 418 ng·h/mL
- Cmax ([7]; 5 mg): 209 ± 48.9 ng/mL
- half-life ([7]; 5 mg): 10 ± 1.18 h
- Tmax ([7]; 5 mg): 1.3 h
- AUC(0-inf) ([7]; 20 mg): 8650 ± 1780 ng·h/mL
- Cmax ([7]; 20 mg): 787 ± 186 ng/mL
- Tmax ([7]; 20 mg): 1.5 ± 0.961 h
SMILES: CCOc1ccc(Cc2cc([C@@H]3S[C@H](CO)[C@@H](O)[C@H](O)[C@H]3O)c(OC)cc2C)cc1 [Luseogliflozin, (1S)-1,5-anhydro-1-[5-(4-ethoxybenzyl)-2-methoxy-4-methylphenyl]-1-thio-D-glucitol]
- Suppression of hERG current [2]: 7.7%
- Mean Tmax ([3]; TS-071 15 mg single oral dose, healthy adult males, ref Investigator's Brochure of TS-071 (Version 6)): 1.56 h
- Mean T1/2 [3, 15]: 12.6 h
- Mean Tmax [3, 15]: 2.25 h
- Time to maximum plasma concentration (Tmax) ([3]; single dose 1–25 mg): ≤ 2.25 h
- IC50 [4]: 0.00226 µM
- Dose levels with diarrhoea or soft stools [5]: ≥ 10 mg/kg
- No observed adverse effect level [5]: 2 mg/kg
- Urinary glucose excretion in comparison to placebo ([6]; 0.5, 1, 2.5 and 5 mg/day, Japanese patients with type 2 diabetes mellitus): significantly increased
- Observed Cmax of unchanged TS-071 ([6]; Day 7, 7-day repeated administration of 5 mg, patients with type 2 diabetes): 299 ng/mL
- Adverse events moderate in severity, number of events ([8]; 5 mg luseogliflozin group): two
- Subjects with first-degree atrioventricular block ([8]; 5 mg luseogliflozin group): one
- Prolonged PR interval in the subject with first-degree atrioventricular block ([8]; 48 h after administration of luseogliflozin 5 mg, one subject): 452 ms
- Relation of cardiovascular adverse events to the study drug ([8]; after administration of luseogliflozin): not related to the study drug
- Percentage of subjects with an adverse event ([8]; luseogliflozin 5 mg group): 41.1%
- AEs, n (number of events) ([8]; luseogliflozin 5 mg, n = 56): 48 n
- Drug-related AEs, n (number of events) ([8]; luseogliflozin 5 mg, n = 56): 20 n
- Percentage of subjects with an adverse event ([8]; luseogliflozin 20 mg group): 35.8%
- AEs, n (number of events) ([8]; luseogliflozin 20 mg, n = 53): 32 n
- Drug-related AEs, n (number of events) ([8]; luseogliflozin 20 mg, n = 53): 16 n
- Tolerability [8]: well tolerated
- Tolerability ([8]; listed as luseogliflozin): safe and well tolerated
- Effect on the cardiovascular system [9]: No effect
- Upper bound of the 90% two-sided CI of the least squares mean ΔΔQTcB ([10]; luseogliflozin 5 mg (anticipated therapeutic dose)): < 10 ms
- Upper bound of the 90% two-sided CI for the least squares mean ΔΔQTcF ([10]; luseogliflozin 5 mg (therapeutic dose)): less than 10 ms
- Correlation between ΔΔQTcF and plasma concentration of unchanged compound ([10]; luseogliflozin 5 mg and 20 mg): No meaningful correlation; also recorded: no relationship
- Hysteresis of mean ΔΔQTcF versus mean plasma concentration ([10]; luseogliflozin 5 mg and 20 mg): no clear hysteresis effect
- Number (%) of Subjects, QTcF Increase >30 ms from baseline ([10]; luseogliflozin 5 mg, n = 56): 0 (0.0) n (%)
- Number (%) of Subjects, QTcF Increase >60 ms from baseline ([10]; luseogliflozin 5 mg, n = 56): 0 (0.0) n (%)
- Number (%) of Subjects, QTcF Value >450 ms ([10]; luseogliflozin 5 mg, n = 56): 1 (1.8) n (%)
- Number (%) of Subjects, QTcF Value >480 ms ([10]; luseogliflozin 5 mg, n = 56): 0 (0.0) n (%)
- Number (%) of Subjects, QTcF Value >500 ms ([10]; luseogliflozin 5 mg, n = 56): 0 (0.0) n (%)
- Upper bound of the 90% two-sided CI for the least squares mean ΔΔQTcF [10, 16]: less than 10 ms
- Upper bound of the 90% two-sided CI of the least squares mean ΔΔQTcB [10, 16]: < 10 ms
- Number (%) of Subjects, QTcF Increase >30 ms from baseline ([10]; luseogliflozin 20 mg, n = 53): 0 (0.0) n (%)
- Number (%) of Subjects, QTcF Increase >60 ms from baseline ([10]; luseogliflozin 20 mg, n = 53): 0 (0.0) n (%)
- Number (%) of Subjects, QTcF Value >450 ms ([10]; luseogliflozin 20 mg, n = 53): 0 (0.0) n (%)
- Number (%) of Subjects, QTcF Value >480 ms ([10]; luseogliflozin 20 mg, n = 53): 0 (0.0) n (%)
- Number (%) of Subjects, QTcF Value >500 ms ([10]; luseogliflozin 20 mg, n = 53): 0 (0.0) n (%)
- Dose levels with diarrhoea or soft stools [11]: ≥ 100 mg/kg
- No observed adverse effect level [11]: 4 mg/kg
- IC50 [12]: 2.9 µM
- Effect on the cardiovascular system [13]: No effect
- Ratio of hERG test concentration (9.6 μmol/L) to the maximum observed Cmax [14]: approximately 370 times

- Tmax ([1]; 400 mg): 2.19 ± 1.09 h
- AUC(0-inf) ([7]; 400 mg): 60000 ± 11100 ng·h/mL
- Cmax ([7]; 400 mg): 3880 ± 939 ng/mL
- Tmax ([7]; 400 mg): 2.2 h
SMILES: COc1c(N2C[C@@H]3CCCN[C@@H]3C2)c(F)cc2c(=O)c(C(=O)O)cn(C3CC3)c12 [Moxifloxacin, moxifloxacin, reference compound]
- Percentage of subjects with an adverse event ([8]; moxifloxacin 400 mg group): 72.2%
- AEs, n (number of events) ([8]; moxifloxacin 400 mg, n = 54): 56 n
- Drug-related AEs, n (number of events) ([8]; moxifloxacin 400 mg, n = 54): 36 n
- Correlation between ΔΔQTcF and plasma concentration of unchanged compound ([10]; moxifloxacin 400 mg): positive relationship; also recorded: positive correlation
- Hysteresis of mean ΔΔQTcF versus mean plasma concentration ([10]; moxifloxacin 400 mg): counter-clockwise hysteresis effect; also recorded: counterclockwise hysteresis
- Least squares mean ΔΔQTcF ([10]; 3 and 4 hour post-dose): 13.4 ms
- Least squares mean ΔΔQTcF ([10]; 24 h post-dose): 7.7 ms
- Number (%) of Subjects, QTcF Increase >30 ms from baseline ([10]; moxifloxacin 400 mg, n = 54): 0 (0.0) n (%)
- Number (%) of Subjects, QTcF Increase >60 ms from baseline ([10]; moxifloxacin 400 mg, n = 54): 0 (0.0) n (%)
- Number (%) of Subjects, QTcF Value >450 ms ([10]; moxifloxacin 400 mg, n = 54): 7 (13.0) n (%)
- Number (%) of Subjects, QTcF Value >480 ms ([10]; moxifloxacin 400 mg, n = 54): 0 (0.0) n (%)
- Number (%) of Subjects, QTcF Value >500 ms ([10]; moxifloxacin 400 mg, n = 54): 0 (0.0) n (%)
- Number (%) of Subjects, QTcF Value >450 ms ([10]; moxifloxacin 400 mg, n = 54, listed as moxifloxacin): 7 n (%)
- Regression of ΔΔQTcF (msec) on plasma concentration (μg/mL) ([10]; moxifloxacin 400 mg, text in Fig 6): ΔΔQTcF = 3.42+3.03xConc.
